What was measured:
[1] = Pharmacokinetics of FZD8-Fc in rat; assay type: in vivo, Sprague Dawley rats; conditions: tail vein, plasma
Experimental: The pharmacokinetics of FZD8-Fc (54F03) were assessed in rats in a two week pharmacokinetics (PK) study using doses of 2 mg/kg and 10 mg/kg. Sprague Dawley rats, five males in each group, were dosed with FZD8-Fc via the tail vein at 2 mg/kg or 10 mg/kg and followed for two weeks with samples collected at the time points 1, 24, 48, 72, 96, 168, 240, and 336 hours. At each time point, 1 ml of blood was collected into potassium-EDTA tubes and centrifuged. The plasma supernatants were collected and frozen until the samples were analyzed.
The level of FZD8-Fc fusion protein present in the plasma at each time point was quantified and the half-life of FZD8-Fc was calculated for the two doses.

PN4 pancreatic tumors = assay: In vivo limiting dilution assay of treated PN4 tumors; design: species or system NOD/SCID mice; conditions: day 75 after injection of 30, 90, 270 cells, control 7 out of 30
Source text: Limiting dilution assays (LDA) can be used to assess the effect of therapeutic agents on solid tumor cancer stem cells and on the tumorigenicity of a tumor comprising the cancer stem cells. Such assays can be used to determine the frequency of cancer stem cells in tumors from animals treated with the FZD8-Fc fusion protein or other agent and to compare that frequency to the frequency of cancer stem cells in tumors from control animals. Control and treated tumors from the PN4 xenograft study described above were harvested at the end of the study (day 85). The tumors were processed and dissociated into single cells. […] The human cells in the suspension were harvested, counted, and stained for cell surface markers and appropriate cell doses (30, 90, and 270 cells) in FACS buffer were mixed in a 1:1 mixture with Matrigel and injected subcutaneously in NOD/SCID mice (10 mice per cell dose per treatment group). […] At the desired time point, the percentage of mice with detectable tumors was determined in all groups injected with FZD8-Fc-treated tumor cells and compared to the percentage of mice with detectable tumors in the controls. For example, the number of mice injected with 125 control antibody-treated tumor cells that have detectable tumors is determined and compared to the number of mice injected with 125 FZD8-Fc treated tumor cells that have detectable tumors. […]

PN4 tumors = assay: Alcian blue staining of treated PN4 tumors; assay type: in vivo, NOD/SCID mice; conditions: day 85, vs control antibody or gemcitabine
Experimental: Increased cell differentiation of PN4 and PN8 tumors with FZD8-Fc treatment. Control and treated tumors from the OMP-PN4 xenograft study described above (Example 3) were harvested at the end of the study (day 85). Tumors were fixed in formalin, embedded in paraffin, and tumor sections of 4 μm thickness were cut. After deparaffinization and hydration, the sections were treated with aqueous acetic acid for 5 minutes at room temperature. The sections were then treated with 1% alcian blue in 3% aqueous acetic acid for 30 minutes and washed with water. Sections were counter-stained in neutral fast red, dehydrated and mounted. Using this method, sialomucins in the tissue samples stain blue and the background appears as pink or red.

[2] = test system: C28 colon tumor xenografts; assay: C28 colon tumor xenograft, doses and dosing regimen; assay type: in vivo, NOD/SCID mice; conditions: from day 2
Experimental: The effect of multiple doses and dosing regimen of FZD8-Fc (54F03) on the growth of C28 colon tumor xenografts was analyzed. Dissociated C28 cells (10,000 per animal) were injected subcutaneously into 6-8 week old male NOD/SCID mice. On day 2, mice were randomized into 6 groups of 10 animals each. Animals were injected with either control antibody or FZD8-Fc at doses of 1.5 mg/kg (twice a week), 5 mg/kg (once and twice a week) and 15 mg/kg (once and twice a week). Administration of the antibody and FZD8-Fc was performed via injection into the intraperitoneal cavity. Tumor growth was monitored weekly and tumor measurements were initiated once tumors were palpable. Tumors were measured twice a week and tumor volume was determined as described herein.

[3] = test system: C28 colon tumor xenografts; assay: C28 colon tumor xenograft, combination with irinotecan; assay type: in vivo, NOD/SCID mice; conditions: C28 established tumors; FZD8-Fc 15 mg/kg once a week, irinotecan 15 mg/kg once a week, i.p.
Experimental: The effect of FZD8-Fc in combination with a chemotherapeutic agent on the growth of C28 colon tumor xenografts was analyzed. Dissociated C28 colon tumor cells (10,000 cells) were injected subcutaneously into 6-8 week old male NOD/SCID mice. Tumors were allowed to grow for 21 days until they reached an average volume of 128 mm^3. The mice were randomized (n=10 per group) and treated with FZD8-Fc (54F03) (15 mg/kg once a week), irinotecan (15 mg/kg once a week), a combination of FZD8-Fc and irinotecan or a control antibody. Administration of the FZD8-Fc, irinotecan and control antibody was performed via injection into the intraperitoneal cavity. Tumor growth was monitored and tumor volumes were measured with electronic calipers at the indicated time points. Data are expressed as mean±S.E.M.

PN21 pancreatic tumors = assay: In vivo limiting dilution assay of treated PN21 tumors; design: species or system NOD/SCID mice; conditions: day 72
Source text: As described above in Example 3, a limiting dilution assays was used to assess the effect of treatment with FZD8-Fc alone or in combination with gemcitabine on solid tumor cancer stem cells in the PN21 pancreatic tumor model.
Control and treated tumors from the PN21 xenograft study described above were harvested at the end of the study. The tumors were processed and dissociated into single cells. […] The human cells in the suspension were harvested, counted, and stained for cell surface markers and appropriate cell doses (30, 90, and 270 cells) in FACS buffer were mixed in a 1:1 mixture with Matrigel and injected subcutaneously in NOD/SCID mice (10 mice per cell dose per treatment group). […]
At the desired time point, the percentage of mice with detectable tumors was determined in all groups injected with treated tumor cells and compared to the percentage of mice with detectable tumors in control treated cells. For example, the number of mice injected with 125 control antibody-treated tumor cells that have detectable tumors is determined and compared to the number of mice injected with 125 FZD8-Fc treated tumor cells that have detectable tumors.
On day 72 after injection of the cells, tumor take rates in the various groups were determined and the cancer stem cell frequency was calculated using L-Calc™ software (StemCell Technologies Inc.; www.stemcell.com).

[4] = Pharmacokinetics of FZD8-Fc variants in rats; conditions: rat, tail vein, 10 mg/kg, plasma
Experimental: The pharmacokinetics of several FZD8-Fc variants were assessed in rats in a two week pharmacokinetics (PK) study. […] Sprague Dawley rats, five males in each group, were dosed with FZD8-Fc variants via the tail vein at 10 mg/kg and followed for two weeks with samples collected at time points 1, 24, 48, 72, 96, 168, 240, and 336 hours. At each time point, 1 ml of blood was collected into potassium-EDTA tubes and centrifuged. The plasma supernatants were collected and frozen until the samples were analyzed.
The level of FZD8-Fc variant protein present in the plasma at each time point was quantified and the half-life of each FZD8-Fc variant was calculated.

54F03: Fri domain of human FZD8 fused to human IgG1 Fc with GRA linker; SEQ ID NO:1
half-life ([1]; 2 mg/kg): 163 h
half-life ([1]; 10 mg/kg): 157 h
tumor take rate (PN4 pancreatic tumors): 3 mice out of 30 mice
cells expressing sialomucins (alcian blue) (PN4 tumors): increase in cells expressing sialomucins
reduction of growth over control antibody ([2]; 1.5 mg/kg twice a week i.p.): 52%
reduction in tumor growth over control antibody ([2]; 15 mg/kg twice weekly i.p.): 83%
reduction in tumor growth over control antibody [3]: 66%
reduction of cancer stem cell frequency as compared to control antibody (PN21 pancreatic tumors): four-fold
t1/2 in hours [4]: 162 h

— patent US9157904B2, “Wnt antagonists and methods of treatment and screening” (OncoMed Pharmaceuticals, Inc., priority 2010, dated 2015)
